From patent publication US5874235A, “Screening assays for cancer chemopreventative agents” (The Johns Hopkins University, priority 1997, dated 1999)
Where two headings read alike, the source gives them in different places.

How the values were obtained:
[1] = test system: immortalized human keratinocytes (HaCat); test: Apoptosis in immortalized keratinocytes; format: cell-based; details: 48 h, read-out: cells that had undergone apoptosis
Protocol: This ability of SUS is not limited to colon cancer cells; primary fibroblasts and immortalized keratinocytes can increase ceramide levels and undergo apoptosis in response to SUS. […] Forty-eight hours after exposure to 200 μM SUS greater than 70% of the cells had undergone apoptosis and ceramide levels were 8.2 and 4.7 fold increased in HDF and HaCat cells, respectively. This is consistent with NSAIDs' ability to reduce tumor formation in a variety of tissues (19) and their adverse effects on normal gastric mucosa, but it fails to explain the apparent greater sensitivity of tumor cells. The in vivo effect will likely depend on the local concentration of the NSAID in the incipient tumor microenvironment as well as the target cell's "lipid biostat" (20). The fact that the concentration of SUS is higher in the intestines than in other organs, due to enterohepatic circulation and due to the metabolic activation of sulindac to SUS by gut flora (21), may be responsible for its particular efficacy in intestinal tumorigenesis.

[2] = test system: SW480 cells; format: cell-based, human; details: SUS 100 μM
[3] = test system: HCT116 cells; format: cell-based, human
Protocol: FIGS. 1A, 1B and 1C NSAID induce apoptosis in human colorectal cancer cells. In FIG. […] Cells were collected at the indicated times, fixed and stained with Hoechst 33258 (23). The cells were counted and those with fragmented nuclei were scored as apoptotic. In FIG. 1B, HCT116 and SW480 cells were treated with SUS or INDO for 60 hours, harvested and stained as described above. Cells treated with SUS or INDO show the hallmarks of apoptosis.
(§1) This death appeared to be apoptotic, as it was accompanied by nuclear condensation and fragmentation (FIG. 1B) and exposure of phosphatidylserine groups on the cell surface, two hallmarks of apoptosis (11, 12).

[4] = test system: SW480 cells; format: cell-based, human
Protocol: FIGS. 1A, 1B and 1C NSAID induce apoptosis in human colorectal cancer cells. In FIG. 1A, HCT116 and SW480 cells were treated with indomethacin (INDO) (300 μM) or SUS (125 μM for HCT116 and 200 μM for SW480 cells). Cells were collected at the indicated times, fixed and stained with Hoechst 33258 (23). The cells were counted and those with fragmented nuclei were scored as apoptotic. In FIG. 1B, HCT116 and SW480 cells were treated with SUS or INDO for 60 hours, harvested and stained as described above. Cells treated with SUS or INDO show the hallmarks of apoptosis.
as §1

With `CSc1ccc(/C=C2/C(C)=C(CC(=O)O)c3cc(F)ccc32)cc1` [SUS, sulindac sulfide] the cytotoxicity at 200 µM [1] was greater than 70%, the cell death [2] was “not at 100 μM” and the apoptosis ([3]; 200 μM SUS, 16 hours) was “the majority of cells had not yet undergone apoptosis”. For the same compound, the cell death ([3]; SUS 50 μM) was “induced neither”, the apoptosis ([3]; SUS 125 μM, with or without 10 μM CHX, 48 hours) was “underwent apoptosis” and the apoptosis ([4]; 200 μM SUS, 16 hours) was “the majority of cells had not yet undergone apoptosis”. The apoptosis ([4]; SUS 200 μM, with or without 10 μM CHX, 48 hours) was “underwent apoptosis”.
